Measurements as given in PubChem BioAssay (NCI).
Several values for one entry are separate records, joined by “and”; a condition that tells them apart may be missing. Equal values may be shown once.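 Five compound concentrations were applied to cells in 96-well plates for 48 hours; endpoints were derived by simple linear interpolation of the resulting dose-response curve. The concentration for 50% growth inhibition is given as GI50. Definition used: TGI = concentration required for complete inhibition of growth.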

Columns and labels:
Experiment in all cases: growth of human tumour cells (NCI), 48 h
ACHN renal = system: ACHN renal
OVCAR-3 ovarian = system: OVCAR-3 ovarian
MCF7 breast = system: MCF7 breast
SK-MEL-28 melanoma = system: SK-MEL-28 melanoma
SK-OV-3 ovarian = system: SK-OV-3 ovarian
SF-539 CNS = system: SF-539 CNS
SN12C renal = system: SN12C renal
K-562 leukemia = system: K-562 leukemia
HCT-116 colon = system: HCT-116 colon
SF-268 CNS = system: SF-268 CNS

| SMILES | GI50 (ACHN renal) | TGI (ACHN renal) | GI50 (OVCAR-3 ovarian) | TGI (OVCAR-3 ovarian) | GI50 (MCF7 breast) | TGI (MCF7 breast) | GI50 (SK-MEL-28 melanoma) | TGI (SK-MEL-28 melanoma) | GI50 (SK-OV-3 ovarian) | TGI (SK-OV-3 ovarian) | GI50 (SF-539 CNS) | TGI (SF-539 CNS) | GI50 (SN12C renal) | TGI (SN12C renal) | GI50 (K-562 leukemia) | TGI (K-562 leukemia) | GI50 (HCT-116 colon) | TGI (HCT-116 colon) | GI50 (SF-268 CNS) | TGI (SF-268 CNS) |
| --- | --- | --- | --- | --- | --- | --- | --- | --- | --- | --- | --- | --- | --- | --- | --- | --- | --- | --- | --- | --- |
| O=C1[C@H](Cc2ccc(O)cc2)N2C(=O)CCN(C(=O)NCc3ccccc3)[C@H]2CN1Cc1cccc2ccccc12 | 4.73 µM | 57.7 µM | 1.71 µM | 8.91 µM | 6020 nM | 39 µM | 0.79 µM | 9.63 µM | 2.74 µM | 8.14 µM | 0.926 µM | 7.4 µM | 4.18 µM | > 100 µM | 2.06 µM | > 100 µM | 916 nM | 12.7 µM | 1.81 µM | 15.5 µM |
| COc1ccc(Cn2c(Br)c3c(c2-c2cc(OC)c(OC)c(OC)c2)CCc2sc(N)nc2-3)cc1 | 1.07 µM | 25.7 µM | 0.861 µM | 9.61 µM | 371 nM | 18.9 µM | 4.76 µM | 33.6 µM | 1.2 µM | 8.04 µM | 1.16 µM | 10.5 µM | 2.15 µM | 14.2 µM | 0.436 µM | > 32.9 µM | 1400 nM | > 100 µM | 1.73 µM | 20.8 µM |
| CC[C@]12C=CCN3CC[C@@]4(c5ccc(OC)cc5N(C)[C@H]4[C@@](O)(C(=O)OC)[C@@H]1OC(=O)CCCN1CCN(CCCC(=O)O[C@@H]4[C@]5(CC)C=CCN6CC[C@@]7(c8ccc(OC)cc8N(C)[C@H]7[C@@]4(O)C(=O)OC)[C@@H]65)CC1)[C@@H]32 | 0.857 µM | 2.07 µM | 1.38 µM | 2.82 µM | 548 nM | 1.96 µM | 1.4 µM | 2.78 µM | 2.07 µM | 3.63 µM | 1.38 µM | 2.7 µM | 1.14 µM | 2.55 µM | 0.18 µM | 0.365 µM | 317 nM | 1.05 µM | 0.919 µM | 2.38 µM |
| CNS(=O)(=O)Nc1nccc(Cc2c(C)c3ccc(Oc4ncccn4)cc3oc2=O)c1F | 4.92 µM and > 2.21 µM | > 100 µM | 24.5 µM and > 10 µM | > 100 µM | 57000 nM and > 10000 nM | > 100 µM | 0.0234 µM and 0.00549 µM |  |  | > 100 µM | 61.5 µM and > 10 µM | > 100 µM | 13.1 µM and > 8.08 µM | > 100 µM | 2.21 µM and 1.62 µM | > 100 µM | 70 nM and 103 nM | > 100 µM | > 86 µM | > 100 µM |
| C/C(=C\c1csc(C)n1)[C@@H]1C[C@@H]2O[C@]2(C)CCC[C@H](C)[C@H](O)[C@@H](C)C(=O)C(C)(C)[C@@H](O)CC(=O)N1 | 0.000324 µM | 0.000478 µM | 0.000158 µM | 0.000377 µM | 0.0795 nM | 0.00037 µM | 0.000219 µM | 0.000436 µM | 0.00477 µM | 0.0595 µM | 0.000165 µM | 0.000369 µM | 0.000214 µM | 0.000418 µM | 0.000106 µM | 0.00033 µM | 0.0917 nM | 0.0003 µM | 0.000215 µM | 0.000446 µM |
| CN(C)c1ccc(/C=N/N=C(\C#N)[S][Sn]([Cl])([c]2ccccc2)[c]2ccccc2)cc1 | 1.72 µM | 3.2 µM | 1.3 µM | 2.59 µM | 283 nM | 1.35 µM | 1.48 µM | 2.93 µM | 2.78 µM |  | 1.7 µM | 3.3 µM | 1.59 µM | 3.12 µM | 0.339 µM | 3.55 µM | 1320 nM | 2.63 µM | 1.51 µM | 3.06 µM |
| C=C(C)c1nc(Oc2ccccc2)nc(Oc2ccccc2)n1 |  | 23 µM |  | 15.2 µM |  | 12.6 µM |  | 15.3 µM |  | 30.3 µM |  | 14.5 µM |  | 16.4 µM |  | 5.49 µM |  | 10.5 µM |  | 16.2 µM |
| Oc1c(Br)cc(Cl)cc1C(c1cc(Cl)cc(Br)c1O)C(Cl)(Cl)Cl | 3.06 µM | 9.81 µM | 3.14 µM | 10.1 µM | 2830 nM | 10.9 µM | 3.7 µM | 14.9 µM | 2.94 µM | 8.93 µM | 3.15 µM | 10.7 µM | 2.1 µM | 11.8 µM | 0.832 µM | 16.8 µM | 2120 nM | 7.91 µM | 3.61 µM | 15.2 µM |
| Cn1cc(-c2ccc3c(c2)ncn3-c2cc(NS(=O)(=O)C3CC3)cc(-c3ccc(F)cc3F)c2)cn1 | 5 µM | 66.9 µM | 14.5 µM | 62.3 µM | 4370 nM | 92.6 µM | 20.9 µM | > 100 µM | 10.2 µM | > 100 µM | 1.37 µM | 12.7 µM | 2.99 µM | > 100 µM | 4.31 µM | 72.1 µM | 5390 nM | 55.8 µM | 3.01 µM | > 100 µM |
| Cc1cccc(Oc2ccc(Nc3ncnc4ccc(NC(=O)CN(C)C)cc34)cc2Cl)c1 | 0.804 µM | 4 µM | 1.16 µM | 3 µM | 1690 nM | 3.87 µM | 1.85 µM | 3.48 µM | 0.828 µM | 7.24 µM | 1.82 µM | 3.42 µM | 1.34 µM | 3.13 µM | 1.91 µM | 4.63 µM | 1610 nM | 3.09 µM | 1.47 µM | 3.1 µM |
| Nc1cc(C(F)(F)F)c(-c2nc(N3CCOCC3)nc(N3CCOCC3)n2)cn1 | 0.403 µM | > 100 µM | 0.313 µM | 11.2 µM | 113 nM | 19 µM | 0.248 µM | 3.71 µM | 0.131 µM | 0.598 µM | 0.539 µM | 3.54 µM | 0.416 µM | > 48.1 µM | 3.65 µM | > 100 µM | 605 nM | > 100 µM | 0.476 µM | > 72.5 µM |
| CC1=C(C(=O)Nc2ccc3[nH]ncc3c2)C(c2ccc(F)cc2)N=C(c2ccc(C(F)(F)F)nc2)N1 (configuration not stated) | 13.3 µM | > 25 µM | 9.07 µM | > 25 µM | 7710 nM | > 25 µM | > 19.9 µM | > 25 µM | > 25 µM | > 25 µM | 7.61 µM | > 25 µM | > 22.9 µM | > 25 µM | 10 µM | > 25 µM | 13200 nM | > 25 µM | 10.7 µM | > 25 µM |
| CC1(C)CC2=NO[Se]3=C2C(=NO3)C1 |  | 3.61 µM |  | 5.37 µM |  | 14.2 µM |  | 16.6 µM |  | 13.1 µM |  | 5.75 µM |  | 13 µM |  | 12.4 µM |  | 10.4 µM |  | 56.3 µM |
| C#CCCCCCC(=O)N[C@H]1C=C[C@@H]2/C=C(C)/C=C/[C@@H](C)[C@H]([C@H](C)[C@H](O)[C@@H](C)NC(C)=O)OC(=O)/C=C/C=C(C)\C=C\[C@]2(C)C1 | < 0.004 µM | > 40 µM | 0.00889 µM | > 40 µM | < 4 nM | > 40 µM | 0.00795 µM | 12.3 µM | < 0.004 µM | > 40 µM | < 0.004 µM | 32.3 µM | < 0.004 µM | > 40 µM | < 0.004 µM | > 40 µM | < 4 nM | > 40 µM | 0.397 µM | > 40 µM |
| COc1nc(N)nc2nc[nH]c12 | 454 µM and 381 µM | 500 µM and 800 µM and > 1000 µM | 744 µM and > 856 µM | 500 µM and 800 µM and > 1000 µM | 604000 nM | 500 µM and > 1000 µM | > 1000 µM | > 1000 µM | 776 µM and 508 µM | 212 µM and 800 µM and > 1000 µM | > 800 µM | 500 µM and > 800 µM and > 1000 µM | 536 µM and 552 µM | 500 µM and 800 µM and > 1000 µM | > 800 µM | > 1000 µM | 747000 nM and 670000 nM | 500 µM and 800 µM and > 1000 µM | 646 µM | 500 µM and 800 µM and > 1000 µM |
